Test [1] concerns Escherichia coli. The test can be described thus: Induction of membrane disruption in Escherichia coli ATCC 25922 at 5 ug/ml after 2 hrs by propidium iodide/4', 6'-diamidino-2-phenylindole dihydrochloride dye based fluorescence microscopy. The format is functional.
Test [2] relates to Enterococcus faecalis. In words: Antimicrobial activity against vancomycin resistant Enterococcus faecalis ATCC 700802 after 16 hrs. The format is functional. The note with it: ATCC 700802, 16 h.
The test system of test [3] is Staphylococcus aureus. In words: Antibacterial activity against methicillin resistance Staphylococcus aureus ATCC 33591 after 14 serial passage at 0.5 times MIC after 16 hrs. It is filed as functional.
Test [4] in a line: Selectivity index, ratio of HC50 for mouse RBC to MIC for methicillin resistance Staphylococcus aureus ATCC 33591.
For test [5], the system named is Escherichia coli. The test can be described thus: Antimicrobial activity against Escherichia coli ATCC 25922 after 16 hrs. The format is functional. The note with it: ATCC 25922, 16 h.
Test [6] relates to Staphylococcus aureus. In words: Antibacterial activity against methicillin resistance Staphylococcus aureus ATCC 33591 infected in Wistar rat assessed as reduction in bacterial load in bronchoalveolar lavage of lungs at 10 mg/kg, iv treated 24 hrs post infection measured after 3 days relative to control. The format is functional. Also on record: scale not given: the % may be the effect or the level left.

The test system of test [7] is Staphylococcus aureus. The test can be described thus: Antibacterial activity against methicillin resistant Staphylococcus aureus ATCC 33591 infected in Wistar rat assessed as reduction in lung inflammation at 10 mg/kg, iv treated 24 hrs post infection measured after 5 days by hematoxylin/ eosin staining based microscopic analysis. The format is functional, organism-based.

Test [8] relates to Staphylococcus epidermidis. The test can be described thus: Antimicrobial activity against methicillin resistant Staphylococcus epidermidis RP62A after 16 hrs. The format is functional.
A short description of test [9]: Retention time of compound by HPLC analysis.
For test [10], the system named is Staphylococcus aureus. In words: Antibacterial activity against methicillin resistance Staphylococcus aureus ATCC 33591 infected in Wistar rat assessed as reduction in bacterial load in bronchoalveolar lavage of lungs at 10 mg/kg, iv treated 24 hrs post infection measured after 5 days relative to control. Also on record: scale not given: the % may be the effect or the level left. The format is functional.

Test [11] concerns Staphylococcus aureus. The test can be described thus: Antibacterial activity against methicillin resistant Staphylococcus aureus ATCC 33591 infected in Wistar rat assessed as reduction in lung inflammation at 10 mg/kg, iv treated 24 hrs post infection measured after 3 days by hematoxylin/ eosin staining based microscopic analysis. It is filed as functional, organism-based.
For test [12], the system named is Staphylococcus aureus. The test can be described thus: Bactericidal activity against methicillin resistance Staphylococcus aureus ATCC 33591 at 2 ug/ml after 60 mins by time kill analysis. The format is functional.
For test [13], the system named is Klebsiella pneumoniae. The test can be described thus: Antimicrobial activity against Klebsiella pneumoniae ATCC 13383 after 16 hrs. It is filed as functional. The conditions noted are these: ATCC 13383, 16 h.
Test [14] has as its system Staphylococcus aureus. The test can be described thus: Induction of membrane disruption in methicillin resistance Staphylococcus aureus ATCC 33591 at 5 ug/ml after 2 hrs by propidium iodide/4', 6'-diamidino-2-phenylindole dihydrochloride dye based fluorescence microscopy. It is filed as functional.
The subject of test [15] is Staphylococcus aureus. In words: Bactericidal activity against methicillin resistance Staphylococcus aureus ATCC 33591 at 25 ug/ml after 10 mins by time kill analysis. The format is functional.
For test [16], the system named is Escherichia coli. The test can be described thus: Bactericidal activity against Escherichia coli ATCC 25922 at 25 to 50 ug/ml after 30 mins by time kill analysis. It is filed as functional.
For test [17], the system named is Staphylococcus aureus. In words: Antimicrobial activity against methicillin resistant Staphylococcus aureus ATCC 33591 after 16 hrs. It is filed as functional. The conditions noted are these: ATCC 33591, 16 h.
The subject of test [18] is Escherichia coli. The test can be described thus: Bactericidal activity against Escherichia coli ATCC 25922 at 4 ug/ml after 60 mins by time kill analysis. It is filed as functional.
Test [19] deals with HCT-116. The test can be described thus: Cytotoxicity against human HCT116 cells. It is filed as cell-based.
For test [20], the system named is Pseudomonas aeruginosa. In words: Antimicrobial activity against Pseudomonas aeruginosa ATCC 27853 after 16 hrs. The format is functional. The note with it: ATCC 27853, 16 h.

Values after ≈ are worked out from the molar mass of the structure shown. Active and inactive are the calls of the source. No cut-off for these calls is given here.

On to `CCCCCCCCCCCC(=O)N[C@@H](CCCCN)CN1CC(=O)N(c2cccc(Cl)c2)C1=O`, for which the result in [1], in test [3], in test [7], in [11], in test [12] and in test [14] was Active. Also, the result in test [15], in test [16] and in test [18] was Active. Further, the MIC (usually the least concentration at which growth counts as inhibited) in test [2] is 0.5 mg/L (≈ 0.986 µM); in test [5] it was 1 mg/L (≈ 1.97 µM); in test [8], 0.5 mg/L (≈ 0.986 µM); in test [13] it was 0.78 mg/L (≈ 1.54 µM); in test [17] it was 0.5 mg/L (≈ 0.986 µM); in test [20], 1 mg/L (≈ 1.97 µM). Moreover, in test [4], the Selectivity Index was determined as 190. Also, the Activity came out at 70% in test [6] and 96% in test [10]. The Retention time in test [9] worked out at 28.4 min. Besides, the IC50 (in general, the concentration that gives 50% inhibition) in test [19] worked out at 100 mg/L (≈ 197 µM).
